{
  "source": "patent US11345701B1",
  "about": "“KRAS mutant protein inhibitors” (Jacobio Pharmaceuticals Co., Ltd., priority 2021, dated 2022)",
  "key": {"[1]": {"test_system": "SW837 (KRAS^G12C) xenograft", "assay": "Safety exploration in SW837 (KRAS G12C) xenograft model", "assay_type": "in vivo", "settings": "400 mg/kg, po, QD for 22 days, female NOD SCID mice, FIG. 2", "procedure": "SW837 (KRAS^G12C) cells (1.0E+07 cells) were injected subcutaneously into the right flank of female NOD SCID mice (6-8 weeks) in a mixture with PBS and Matrigel (Corning) (PBS/Matrigel=1:1(v/v)). Mice were monitored daily and caliper measurements began when tumors became visible. Tumor volume was calculated by measuring two perpendicular diameters using the following formula: (L*W^2)/2 in which L and W refer to the length and width tumor diameter respectively. After mice were grouped to study the efficacy, the remaining mice (n=8) were used to explore the safety. The mice were treated with 400 mg/kg Compound 2-1 (po, QD) for 22 days, and mice body weight was measured twice a week during treatment. From FIG. 2, it can be seen that the Compound 2-1 has good safety."}, "HIS-KRAS(G12C)": {"molecular_target": "HIS-KRAS(G12C) (Homo sapiens (Human), UniProt P01116, G12C)", "sequence (P01116 other isoform, or with tags, fused parts or gaps G12C)": "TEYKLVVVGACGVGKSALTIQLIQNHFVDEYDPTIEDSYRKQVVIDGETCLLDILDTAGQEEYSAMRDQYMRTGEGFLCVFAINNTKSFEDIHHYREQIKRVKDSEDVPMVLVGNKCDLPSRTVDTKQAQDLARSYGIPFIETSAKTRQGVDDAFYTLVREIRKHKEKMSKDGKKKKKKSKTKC", "assay": "SOS1 catalyzed nucleotide exchange assay (TR-FRET)", "assay_type": "biochemical", "procedure": "TR-FRET signals were then read on Tecan Spark multimode microplate reader. […] TR-FRET ratios for each individual wells were calculated by equation: TR-FRET ratio=(Signal F515/Signal F486)*10000. Then the data were analyzed using a 4-parameter logistic model to calculate IC50 values."}},
  "data": [
    {"smiles": "C=CC(=O)N1CCN(c2nc(=O)n(-c3c(C)ccnc3C(C)C)c3nc(-c4c(N)c(F)c(F)c(F)c4F)c(F)cc23)[C@@H](C)C1", "note": "(atropisomer, axis not shown; (M)) [Compound 2-1, (M)-4-((S)-4-acryloyl-2-methylpiperazin-1-yl)-7-(2-amino-3,4,5,6-tetrafluorophenyl)-6-fluoro-1-(2-isopropyl-4-methylpyridin-3-yl)pyrido[2,3-d]pyrimidin-2(1H)-one]", "values": [
      {"measurement": "Safety judged from mice body weight", "setting": "[1]", "result": "good safety"},
      {"measurement": "IC50", "setting": "HIS-KRAS(G12C); GDP-loaded HIS-KRAS(G12C), 1 hour pre-incubation, TR-FRET", "result": 1.19, "unit": "nM"},
      {"measurement": "Inhibitory activity relative to the control compound Amg-510", "setting": "HIS-KRAS(G12C); SOS1 catalyzed nucleotide exchange assay", "result": "about 2 times"}
    ]}
  ]
}
